In this experiment the target is recombinant DYRK1A kinase (Homo sapiens (Human), UniProt Q13627). Kind of experiment: DYRK1A kinase assay (Ser/Thr 18 peptide Z-lyte FRET assay). The format is biochemical. Conditions: recombinant DYRK1A 0.25 µg/mL, ATP 15 µM, Ser/Thr peptide 18 4 µM, one hour at room temperature; table head prints EC50, method says IC50. The protocol: Representative compounds were screened using the assay procedure for DYRK1A kinase activity as described below.
Each compound was dissolved in DMSO as a 10 mM stock and used to prepare compound source plates. Serial dilution (1:3, 11-point dose-response curves from 10 µM to 0.00016 µM) and compound transfer was performed using the ECHO 550 (Labcyte, Sunnyvale, CA) into 1536-well black-walled round bottom plates (Corning).
The DYRK1A kinase assay was run using the Ser/Thr 18 peptide Z-lyte assay kit according to manufacturer’s instructions (Life Technologies- a Division of Thermo-Fisher). This is a non-radioactive assay using fluorescence resonance energy transfer (FRET) between coumarin and fluorescein to detect kinase activity which is represented as a ratio of coumarin emission/fluorescein emission.
Briefly, recombinant DYRK1A kinase, ATP and Ser/Thr peptide 18 were prepared in 1X Kinase buffer to final concentrations of 0.25 µg/mL, 15 µM, and 4 µM respectively. The mixture was allowed to incubate with the representative compounds for one hour at room temperature. All reactions were performed in duplicate. Unphosphorylated (“0% Control”) and phosphorylated (“100% control”) forms of Ser/Thr 18 served as control reactions. Additionally, an 11-point dose-response curve of Staurosporine (1uM top) was run to serve as a positive compound control.
After incubation, Development Reagent A was diluted in Development Buffer then added to the reaction and allowed to further incubate for one hour at room temperature. The plate was read at Ex 400 Em 455 to detect the coumarin signal and Ex 400 Em 520 to measure the signal (EnVision Multilabel Plate Reader, PerkinElmer).
The Emission ratio (Em) was calculated as a ratio of the coumarin (C) emission signal (at 445 nm)/Fluorescein (F) emission signal (at 520 nm). The percent phosphorylation was then calculated using the following formula: [1 — ((Em ratio X F100%)—C100%)/ ((C0%—C100%) + (Em ratio X (F100% - F0%)))]. Dose-response curves were generated, and inhibitory concentration (IC50) values were calculated using non-linear regression curve fit in the Dotmatics’ Studies Software (Bishops Stortford, UK).
One may read the EC50 as the concentration needed to bring the measured effect to its halfway point. For `CO[C@H]1C[C@@H](Nc2ncc3c(-c4ccc5nc(C)n(CC(F)F)c5n4)ccn3n2)C1` [Compound 1091, 5-(3-(2,2-Difluoroethyl)-2-methyl-3H-imidazo[4,5-b]pyridin-5-yl)-N-(cis-3-methoxycyclobutyl)pyrrolo[2,1-f][1,2,4]triazin-2-amine], the EC50 was found to be 3.34 µM.

In the case of `Cc1nc2ccc(-c3ccn4nc(N[C@H]5CC[C@@H](O)CC5)ncc34)nc2n1CC(F)F` [Compound 1109, cis-4-((5-(3-(2,2-Difluoroethyl)-2-methyl-3H-imidazo[4,5-b]pyridin-5-yl)pyrrolo[2,1-f][1,2,4]triazin-2-yl)amino)cyclohexan-1-ol], the EC50 turned out to be 0.006 µM.

For the compound `Cc1nc2ccc(-c3ccn4nc(N[C@H]5CC[C@@](C)(O)CC5)ncc34)nc2n1CC(F)F` [Compound 1110, (1s,4s)-4-((5-(3-(2,2-Difluoroethyl)-2-methyl-3H-imidazo[4,5-b]pyridin-5-yl)pyrrolo[2,1-f][1,2,4]triazin-2-yl)amino)-1-methylcyclohexan-1-ol], the EC50 was 0.003 µM.

As to `Cc1nc2ccc(-c3ccn4nc(N[C@H]5CC[C@@H](OC(F)F)CC5)ncc34)nc2n1CC(F)F` [Compound 1113, N-(cis-4-(Difluoromethoxy)cyclohexyl)-5-(3-(2,2-difluoroethyl)-2-methyl-3H-imidazo[4,5-b]pyridin-5-yl)pyrrolo[2,1-f][1,2,4]triazin-2-amine], the EC50 was determined as 0.007 µM.

As for `CCO[C@H]1CC[C@@H](Nc2ncc3c(-c4ccc5nc(C)n(CC(F)F)c5n4)ccn3n2)CC1` [Compound 1115, N-(cis-4-Ethoxycyclohexyl)-5-(3-(2,2-difluoroethyl)-2-methyl-3H-imidazo [4,5-b]pyridin-5-yl)pyrrolo[2,1-f][1,2,4]triazin-2-amine], the EC50 is 0.003 µM.

For `COCCO[C@H]1CC[C@@H](Nc2ncc3c(-c4ccc5nc(C)n(CC(F)F)c5n4)ccn3n2)CC1` [Compound 1117, 5-(3-(2,2-Difluoroethyl)-2-methyl-3H-imidazo[4,5-b]pyridin-5-yl)-N-(cis-4-(2-methoxyethoxy)cyclohexyl)pyrrolo[2,1-f][1,2,4]triazin-2-amine], the EC50 came to 0.004 µM.

For `COCCO[C@H]1CC[C@H](Nc2ncc3c(-c4ccc5nc(C)n(CC(F)F)c5n4)ccn3n2)CC1` [Compound 1118, 5-(3-(2,2-Difluoroethyl)-2-methyl-3H-imidazo[4,5-b]pyridin-5-yl)-N-(trans-4-(2-methoxyethoxy)cyclohexyl)pyrrolo[2,1-f][1,2,4]triazin-2-amine], the EC50 amounted to 0.005 µM.

As for `Cc1nc2ccc(-c3ccn4nc(N[C@H]5CC[C@@H](N6CCOCC6)CC5)ncc34)nc2n1CC(F)F` [Compound 1125, 5-(3-(2,2-Difluoroethyl)-2-methyl-3H-imidazo[4,5-b]pyridin-5-yl)-N-(cis-4-morpholinocyclohexyl)pyrrolo[2,1-f][1,2,4]triazin-2-amine], the EC50 is 0.018 µM.

For the compound `Cc1nc2ccc(-c3ccn4nc(NC5CCN(C)CC5)ncc34)nc2n1CC(F)F` [Compound 1131, 5-(3-(2,2-Difluoroethyl)-2-methyl-3H-imidazo[4,5-b]pyridin-5-yl)-N-(1-methylpiperidin-4-yl)pyrrolo[2,1-f][1,2,4]triazin-2-amine], the EC50 was 0.016 µM.

For the compound `Cc1nc2ccc(-c3ccn4nc(NC5CCOCC5)ncc34)nc2n1CC(F)F` [Compound 1132, 5-(3-(2,2-Difluoroethyl)-2-methyl-3H-imidazo[4,5-b]pyridin-5-yl)-N-(tetrahydro-2H-pyran-4-yl)pyrrolo[2,1-f][1,2,4]triazin-2-amine], the EC50 was determined as 0.005 µM.

For the compound `Cn1nnc2ccc(-c3ccn4nc(NCC(C)(C)F)ncc34)cc21` [Compound 1210, N-(2-Fluoro-2-methylpropyl)-5-(1-methyl-1H-benzo[d][1,2,3]triazol-6-yl) pyrrolo[2,1-f][1,2,4]triazin-2-amine], the concentration for a half-maximal effect (EC50) stood at 0.066 µM.

For `CC(C)(F)CNc1ncc2c(-c3ccc4ncccc4c3)ccn2n1` [Compound 1281, N-(2-Fluoro-2-methylpropyl)-5-(quinolin-6-yl)pyrrolo[2,1-f][1,2,4]triazin-2-amine], the EC50 amounted to 0.015 µM.

`COCCO[C@H]1C[C@@H](Nc2ncc3c(-c4ccc5ncccc5c4)ccn3n2)C1` [Compound 1309, N-(cis-3-(2-Methoxyethoxy)cyclobutyl)-5-(quinolin-6-yl)pyrrolo[2,1-f][1,2,4]triazin-2-amine]: the EC50 was determined as 0.003 µM.

Take `O[C@H]1CC[C@@H](Nc2ncc3c(-c4ccc5ncccc5c4)ccn3n2)CC1` [Compound 1322, cis-4-((5-(Quinolin-6-yl)pyrrolo[2,1-f][1,2,4]triazin-2-yl)amino)cyclohexan-1-ol]: the EC50 came out at 0.393 µM.

Turning to `C[C@]1(O)CC[C@@H](Nc2ncc3c(-c4ccc5ncccc5c4)ccn3n2)CC1` [Compound 1323, (1s,4s)-1-Methyl-4-((5-(quinolin-6-yl)pyrrolo[2,1-f][1,2,4]triazin-2-yl)amino)cyclohexan-1-ol], the concentration giving a half-maximal response (EC50) was 0.007 µM.

Take `CN(C)[C@H]1CC[C@@H](Nc2ncc3c(-c4ccc5ncccc5c4)ccn3n2)CC1` [Compound 1336, cis-N^1,N^1-Dimethyl-N^4-(5-(quinolin-6-yl)pyrrolo[2,1-f][1,2,4]triazin-2-yl) cyclohexane-1,4-diamine]: the EC50 is 0.025 µM.

With `CN1CC2(CC(Nc3ncc4c(-c5ccc6ncccc6c5)ccn4n3)C2)C1` [Compound 1348, N-(2-Methyl-2-azaspiro[3.3]heptan-6-yl)-5-(quinolin-6-yl)pyrrolo[2,1-f] [1,2,4]triazin-2-amine], the EC50 was 0.005 µM.

Take `CC(C)(F)CNc1ncc2c(-c3ccc4nccnc4c3)ccn2n1` [Compound 1352, N-(2-Fluoro-2-methylpropyl)-5-(quinoxalin-6-yl)pyrrolo[2,1-f][1,2,4]triazin-2-amine]: the EC50 came out at 0.027 µM.

Regarding `CO[C@H]1C[C@@H](Nc2ncc3c(-c4ccc5nccnc5c4)ccn3n2)C1` [Compound 1375, N-(cis-3-Methoxycyclobutyl)-5-(quinoxalin-6-yl)pyrrolo[2,1-f][1,2,4]triazin-2-amine], the concentration for a half-maximal effect (EC50) was 0.006 µM.

For `CO[C@H]1C[C@H](Nc2ncc3c(-c4ccc5nccnc5c4)ccn3n2)C1` [Compound 1376, N-(trans-3-Methoxycyclobutyl)-5-(quinoxalin-6-yl)pyrrolo[2,1-f][1,2,4] triazin-2-amine], the 50% effective concentration (EC50) worked out at 0.014 µM.

Take `COC[C@H]1C[C@H](Nc2ncc3c(-c4ccc5nccnc5c4)ccn3n2)C1` [Compound 1377, N-(trans-3-(Methoxymethyl)cyclobutyl)-5-(quinoxalin-6-yl)pyrrolo[2,1-f] [1,2,4]triazin-2-amine]: the EC50 came out at 0.008 µM.

Take `FC1(F)CCC(Nc2ncc3c(-c4ccc5nccnc5c4)ccn3n2)CC1` [Compound 1392, N-(4,4-Difluorocyclohexyl)-5-(quinoxalin-6-yl)pyrrolo[2,1-f][1,2,4]triazin-2-amine]: the EC50 was 0.529 µM.

Turning to `COc1ncnc2ccc(-c3ccn4nc(NCC(C)(C)F)ncc34)cc12` [Compound 1423, N-(2-Fluoro-2-methylpropyl)-5-(4-methoxyquinazolin-6-yl)pyrrolo[2,1-f] [1,2,4]triazin-2-amine], the EC50 worked out at 0.149 µM.

Take `CCO[C@H]1C[C@@H](Nc2ncc3c(-c4cnc5ncccc5c4)ccn3n2)C1` [Compound 1520, N-(cis-3-Ethoxycyclobutyl)-5-(1,8-naphthyridin-3-yl)pyrrolo[2,1-f][1,2,4] triazin-2-amine]: the half-maximal effective concentration (EC50) was determined as 0.963 µM.
